From patent publication US20170334959A1 (priority 2015, published 2017) come the findings set out here.

One experiment deals with human Nav1.6 (Homo sapiens, UniProt Q9UQD0). The experiment is classed as cell-based.
A further experiment has as its target human Nav1.7 (Homo sapiens, UniProt Q15858, W1161R). The format is cell-based. The conditions noted are these: read-out: Nav1.7 IC50.
The test system of experiment [1] is acute thermal pain (tail withdrawal latency). The conditions noted are these: in vivo.
Experiment [2] has as its system formalin-induced flinching (injury-induced pain). The conditions noted are these: rat, in vivo.
For experiment [3], the system named is CFA-induced thermal hyperalgesia. More on the design: species or system mice. The conditions noted are these: mouse, in vivo.
For experiment [4], the system named is acute thermal pain (hot plate latency). The conditions noted are these: in vivo.
In experiment [5] the test system is thermal withdrawal latency. On the set-up: species or system mice. The conditions noted are these: mouse, in vivo.
For experiment [6], the system named is CFA-induced tactile allodynia. On the set-up: species or system mice. The conditions noted are these: mouse, in vivo.
Experiment [7] deals with carrageenan-induced thermal hyperalgesia. More on the design: species or system mice. The conditions noted are these: mouse, in vivo.

“Also recorded” adds a separate entry of the source. No end group written: not given here. Where only a bound is given, the exact number is not on record here.

Chain of human Nav1.6 (Q9UQD0 whole entry): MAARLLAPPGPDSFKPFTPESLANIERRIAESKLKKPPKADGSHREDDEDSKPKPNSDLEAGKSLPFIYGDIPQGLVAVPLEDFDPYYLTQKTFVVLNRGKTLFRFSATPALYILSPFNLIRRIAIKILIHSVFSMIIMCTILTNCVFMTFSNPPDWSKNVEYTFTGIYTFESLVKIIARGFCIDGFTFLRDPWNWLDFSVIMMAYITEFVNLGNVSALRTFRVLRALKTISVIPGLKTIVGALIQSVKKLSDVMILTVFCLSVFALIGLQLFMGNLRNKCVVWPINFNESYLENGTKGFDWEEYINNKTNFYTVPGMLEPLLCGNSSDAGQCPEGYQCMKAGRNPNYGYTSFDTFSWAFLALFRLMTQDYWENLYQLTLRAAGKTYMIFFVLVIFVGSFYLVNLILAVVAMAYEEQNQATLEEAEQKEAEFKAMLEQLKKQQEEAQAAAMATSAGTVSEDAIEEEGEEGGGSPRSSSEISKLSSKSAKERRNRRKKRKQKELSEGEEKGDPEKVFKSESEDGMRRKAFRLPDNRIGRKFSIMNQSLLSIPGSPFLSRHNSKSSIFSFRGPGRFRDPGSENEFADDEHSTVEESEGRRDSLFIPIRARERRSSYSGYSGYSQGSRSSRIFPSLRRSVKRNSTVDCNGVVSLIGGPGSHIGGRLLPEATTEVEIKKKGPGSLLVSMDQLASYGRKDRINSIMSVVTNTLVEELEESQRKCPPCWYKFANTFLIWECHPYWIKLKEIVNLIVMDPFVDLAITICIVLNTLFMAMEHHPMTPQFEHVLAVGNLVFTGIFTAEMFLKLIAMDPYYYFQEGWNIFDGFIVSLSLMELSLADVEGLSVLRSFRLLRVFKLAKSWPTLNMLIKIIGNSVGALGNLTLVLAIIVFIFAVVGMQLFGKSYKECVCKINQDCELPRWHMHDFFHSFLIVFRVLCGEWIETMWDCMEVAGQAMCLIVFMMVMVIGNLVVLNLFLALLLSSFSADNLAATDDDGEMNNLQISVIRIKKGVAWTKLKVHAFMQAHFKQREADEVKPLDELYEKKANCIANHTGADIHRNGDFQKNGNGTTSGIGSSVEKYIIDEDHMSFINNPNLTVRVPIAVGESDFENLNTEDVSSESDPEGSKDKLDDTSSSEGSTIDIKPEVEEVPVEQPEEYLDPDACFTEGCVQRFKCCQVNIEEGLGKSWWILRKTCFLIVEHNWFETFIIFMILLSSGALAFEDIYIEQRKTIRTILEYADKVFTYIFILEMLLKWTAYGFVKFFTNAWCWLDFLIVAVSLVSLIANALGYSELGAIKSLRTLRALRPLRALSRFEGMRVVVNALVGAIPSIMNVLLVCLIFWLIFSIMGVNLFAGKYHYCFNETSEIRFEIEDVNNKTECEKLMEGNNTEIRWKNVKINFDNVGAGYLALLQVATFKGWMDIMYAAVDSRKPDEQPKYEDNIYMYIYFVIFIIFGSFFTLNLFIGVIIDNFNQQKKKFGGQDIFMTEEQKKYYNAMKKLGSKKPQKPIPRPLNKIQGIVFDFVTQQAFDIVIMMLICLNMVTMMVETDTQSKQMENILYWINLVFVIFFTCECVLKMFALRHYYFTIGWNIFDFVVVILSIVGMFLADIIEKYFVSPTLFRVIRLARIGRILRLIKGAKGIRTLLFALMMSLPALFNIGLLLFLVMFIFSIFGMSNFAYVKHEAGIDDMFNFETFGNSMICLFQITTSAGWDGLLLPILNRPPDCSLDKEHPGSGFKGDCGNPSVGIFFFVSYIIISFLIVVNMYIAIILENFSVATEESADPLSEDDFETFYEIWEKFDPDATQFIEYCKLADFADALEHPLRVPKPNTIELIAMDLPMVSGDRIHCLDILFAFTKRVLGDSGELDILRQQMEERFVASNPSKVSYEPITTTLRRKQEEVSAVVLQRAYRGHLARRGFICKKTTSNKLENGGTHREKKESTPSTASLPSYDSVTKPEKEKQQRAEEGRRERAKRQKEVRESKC

“GPYCQKWMWTCDSERKCCEGMVCRLWCKKKLW-COOH [NV1D12, reference compound]”: the “selectivity, ratio IC50(Nav1.6)/IC50(Nav1.7) in QPatch” value on human Nav1.6 is recorded as “about 28 fold”.
For orientation: IC50 means the point on the concentration scale where inhibition reaches its midpoint. For “GPQCQKWMQTCDRERKCCEGFVCTLWCRKKLWGSAPAPAPAPAPAPAPAPAPAPGSCCNCSSKWCRDHSRCC [NV1D3797]”, the IC50 at human Nav1.7 is 91.1 nM.
Consider “GPYCQKWMQTCDANRKCCEGFSCRLWCKKKLW-OH (cysteine pairing not given here) [NV1D3586]”, for which the “selectivity for Nav1.7 compared to recombinant Protoxin-II” value (from here on “selectivity … to recombinant Protoxin-II”) on human Nav1.6 was “improved selectivity”.
Consider “GPQCQKWMQTCDRERKCCEGFVCTLWCRKKLW-OH (cysteine pairing not given here) [NV1D3034]”, for which the “efficacy in the tail flick test” value in experiment [1] is “significant efficacy”. In addition, the “efficacy in the formalin test (flinches)” value in experiment [2] is “significant efficacy”. The “reversal of CFA-induced thermal hyperalgesia” value in experiment [3] (sc) was “completely reversed”. Also, the “efficacy in the hot plate test” value in experiment [4] is recorded as “significant efficacy”.
Turning to “GPQCQKWMQTCDAERKCCEGFSCTLWCKKKLW-NH2 [NV1D2974-NH2]”, the “selectivity … to recombinant Protoxin-II” value at human Nav1.6 is “improved selectivity”.
Turning to “GPQCQKWMQTCDAERKCCEGFVCRLWCKKKLWGSAPAPAPAPAPAPAPAPAPAPGSCCNCSSKWCRDHSRCCGR [NV1D3259]”, the IC50 at human Nav1.7 came out at 54.9 nM.
On to “GPCCNCSSKWCRDHSRCCGSAPAPAPAPAPGSQCQKWMQTCDRERKCCEGFVCTLWCRKKLW [NV1D3796]”, for which the IC50 at human Nav1.7 turned out to be 110 nM.
“GPYCQKWMQTCDANRKCCEGFSCRLWCKKKLW-NH2 [NV1D3586-NH2]”: at human Nav1.6, the “selectivity … to recombinant Protoxin-II” value is on record as “improved selectivity”.
For the substance “GPQCQKWMQTCDRERKCCEGFVCTLWCRKKLWGSAPAPAPAPAPGSCCNCSSKWCRDHSRCC [NV1D3799]”, the IC50 on human Nav1.7 was 50.6 nM.
Consider “GPRCQKWMQTCDAERKCCEGFVCRLWCKKKLW-OH (cysteine pairing not given here) [NV1D2772]”, for which the “selectivity … to recombinant Protoxin-II” value at human Nav1.6 is recorded as “improved selectivity”.
As to “GPQCQKWMQTCDRTRKCCEGFVCTLWCRKKLW-OH (cysteine pairing not given here) [NV1D3368]”, the “selectivity … to recombinant Protoxin-II” value at human Nav1.6 was “improved selectivity”. In addition, the “reversal of CFA-induced thermal hyperalgesia” value in [3] (sc) is “fully reversed”.
As to “GPACQKWMQTCDANRKCCEGFSCRLWCKKKLW-OH (cysteine pairing not given here) [NV1D3587]”, the “selectivity … to recombinant Protoxin-II” value on human Nav1.6 is “improved selectivity”.
As to “GPQCQKWMQTCDRERKCCEGFVCTLWCRKKLWGSAPAPAPAPAPGSCCNCSSKWCRDHSRCCGR [NV1D3800]”, the IC50 at human Nav1.7 came out at 60.9 nM.
The same measure, in the same setting: next, “GPQCQKWMQTCDRERKCCEGFVCTLWCRKKLWGSGGGGSAPAPAPAPAPAPAPAPAPAPGGGGSGSCCNCSSKWCRDHSRCCGR [NV1D3828]”: 87.5 nM.
Take “GPQCQKWMQTCDAERKCCEGFSCTLWCKKKLW-OH (cysteine pairing not given here) [NV1D2974]”: on human Nav1.6, the “selectivity … to recombinant Protoxin-II” value is “improved selectivity”.
Same read-out and setting: with “Ac-QCQKWMQTCDAERKCCEGFSCTLWCKKKLW-NH2 [(-GP) N-Ac-NV1D2974-NH2]” the entry was “improved selectivity”.
Still for that read-out and setting: next, “GPQCQKWMQTCDRERKCCQGFVCTLWCRKKLW-OH (cysteine pairing not given here) [NV1D3388]”: “improved selectivity”.
As to “GPQCQKWMQTCDAERKCCEGFVCRLWCKKKLW-OH (cysteine pairing not given here) [NV1D2775]”, in experiment [5], the “efficacy in the hot plate test” value is “strong, dose-dependent efficacy; also recorded: significant analgesia”; the “hotplate latencies at 50 and 55° C.” value was “near cut-off”; the “hotplate thermal latency compared to the PBS control” value is recorded as “modest yet significant increase”. Besides, the “efficacy in the tail flick test” value in [1] was “significant efficacy”. Besides, in [2], the “efficacy in the formalin test (flinches)” value is given as “significant efficacy”. The “selectivity … to recombinant Protoxin-II” value at human Nav1.6 is reported as “improved selectivity”. Also, in [3], the “efficacy in the CFA model / reversal of CFA-induced thermal hyperalgesia” value (shortened to “efficacy in the CFA model / reversal”) was “strong efficacy”, the “thermal latencies in the CFA model” value was “close to the cut-off”, the “time at which anti-hyperalgesic effect was first seen post-pump implantation” value was not above 4 h and the “time by which thermal latency returned to the control level post pump implantation” value is not above 48 h. Besides, the “time of maximum effect, thermal test” value in experiment [3] came to 8 h. In [6], the “reversal of CFA-induced tactile allodynia” value was “reversed”; the “time by which tactile threshold returned to the control level post pump implantation” value is not above 48 h; the “time of maximum effect, tactile test” value amounted to 8 h. Moreover, the “efficacy in the hot plate test” value in experiment [4] was “significant efficacy”. For the same substance, in experiment [7], the “analgesia in the carrageenan study (thermal withdrawal latency)” value is reported as “significant analgesia” and the “protection from carrageenan-induced thermal hyperalgesia” value is on record as “fully protected”.
On to “GPCCNCSSKWCRDHSRCCGRGSAPAPAPAPAPAPAPAPAPAPGSQCQKWMQTCDAERKCCEGFVCRLWCKKKLW [NV1D3260]”, for which the IC50 on human Nav1.7 is 57.6 nM.
Same read-out and setting: with “GPCCNCSSKWCRDHSRCCGRGSGGGGSAPAPAPAPAPAPAPAPAPAPGGGGSGSQCQKWMQTCDRERKCCEGFVCTLWCRKKLW [NV1D3830]” the figure was 88.6 nM; with “GPCCNCSSKWCRDHSRCCGRGSAPAPAPAPAPAPAPAPAPAPGSQCQKWMQTCDRERKCCEGFVCTLWCRKKLW [NV1D3793]”, 64.6 nM.
The same measure, in the same setting: next, “GPCCNCSSKWCRDHSRCCGSAPAPAPAPAPAPAPAPAPAPGSQCQKWMQTCDRERKCCEGFVCTLWCRKKLW [NV1D3795]”: 100 nM.
The same measure, in the same setting: next, “GPQCQKWMQTCDRERKCCEGFVCTLWCRKKLWGSAPAPAPAPAPAPAPAPAPAPGSCCNCSSKWCRDHSRCCGR [NV1D3798]”: 94.5 nM.
For the substance “GPSCQKWMQTCDAERKCCEGFVCRLWCKKKLW-OH (cysteine pairing not given here) [NV1D2773]”, on human Nav1.6, the “selectivity … to recombinant Protoxin-II” value is “improved selectivity”.
With “GPQCQDWMQTCDRERDCCEGFVCTLWCRKKLW-OH (cysteine pairing not given here) [NV1D3379]”, the IC50 on human Nav1.7 stood at 31.6 nM.
As to “GPYCQKWMQTCDSERKCCEGMVCRLWCKKKLL-OH (cysteine pairing not given here) [compound 63955918]”, the “efficacy in the tail flick test” value in [1] is “potent and prolonged analgesia”. Further, the “efficacy in the formalin test (flinches)” value in experiment [2] was “less flinches”. For the same substance, the “efficacy in the hot plate test” value in experiment [4] is “potent and prolonged analgesia”.
Take “Ac-QCQKWMQTCDRERKCCEGFVCTLWCRKKLW-NH2 [(-GP) N-Ac-NV1D3034-NH2]”: the “selectivity … to recombinant Protoxin-II” value at human Nav1.6 is given as “improved selectivity”.
On the same count and under the same terms, with “GPQCQKWMQSCDRERKCCEGFVCTLWCRKKLW-OH (cysteine pairing not given here) [NV1D3359]” the entry was “improved selectivity”; with “GPACQKWMQTCDRNRKCCEGFVCTLWCRKKLW-OH (cysteine pairing not given here) [NV1D3541]”, “improved selectivity”.
Turning to “GPGWCGDPGATCGKLRLYCCSGFCDAYTKTCKDKSSAGGGGSAPAPAPAPAPAPAPAPAPAPAPAPAPAPAPGGGGSQCQKWMQTCDRERKCCEGFVCTLWCRKKLW [NV1D3824]”, the IC50 on human Nav1.7 worked out at 110 nM.
Still for that read-out and setting: with “GPSHSNTQTLAKAPEHTGAPAPAPAPAPAPAPAPAPAPQCQKWMQTCDRERKCCEGFVCTLWCRKKLW [NV1D3774]” the figure was 88.6 nM.
As for “GPQCQKWMQTCDARRKCCEGFVCRLWCKKKLW-OH (cysteine pairing not given here) [NV1D3006]”, the “selectivity … to recombinant Protoxin-II” value at human Nav1.6 is “improved selectivity”.
Take “GPQCQKWMQTCDRERKCCEGFVCTLWCRKKLW-NH-methyl [NV1D3034-NH-methyl]”: the “selectivity … to recombinant Protoxin-II” value at human Nav1.6 is “improved selectivity”. For the same substance, the “efficacy in the CFA model / reversal” value in [3] is “readily reversed”. Further, the “Thermal MPE %” value in [3] (sc) was 49 ± 17%.
In the case of “GPQCQKWMQTCDRERKCCEGFVCTLWCRKKLW-NH2 [NV1D3034-NH2]”, the “selectivity … to recombinant Protoxin-II” value at human Nav1.6 was “improved selectivity”.
Turning to “GPQCQKWMQTCDRERKCCEGFVCTLWCRKKLWGGGGSAPAPAPAPAPAPAPAPAPAPAPAPAPAPAPGGGGSGWCGDPGATCGKLRLYCCSGFCDAYTKTCKDKSSA [NV1D3825]”, the IC50 at human Nav1.7 was determined as 194 nM.
Consider “GPQCQKWMQTCDAERKCCEGFVCRLWCKKKLW-NH2 [NV1D2775-NH2]”, for which the “selectivity … to recombinant Protoxin-II” value on human Nav1.6 is recorded as “improved selectivity”.
With “GPGWCGDPGATCGKLRLYCCSGFCDSYTKTCKDKSSAGGGGSAPAPAPAPAPAPAPAPAPAPAPAPAPAPAPGGGGSQCQKWMQTCDRERKCCEGFVCTLWCRKKLW [NV1D3822]”, the IC50 on human Nav1.7 came out at 74.2 nM.
In the case of “GPQCQKWMQTCDRERKCCEGFVCTLWCRKKLW-NH-butyl [NV1D3034-NH-butyl]”, on human Nav1.6, the “selectivity … to recombinant Protoxin-II” value is listed as “improved selectivity”.
“GPCCNCSSKWCRDHSRCCGSAPAPAPAPAPAPAPAPAPAPGSQCQKWMQTCDAERKCCEGFVCRLWCKKKLW [NV1D3262]”: on human Nav1.7, the IC50 was 89.2 nM.
“GPQCQKWMQTCDRNRKCCEGFVCTLWCRKKLW-OH (cysteine pairing not given here) [NV1D3044]”: the “selectivity … to recombinant Protoxin-II” value at human Nav1.6 is “improved selectivity”.
For the substance “GPQCQKWMQTCDRERKCCEGFVCTLWCRKKLWGSGGGGSAPAPAPAPAPAPAPAPAPAPGGGGSGSCCNCSSKWCRDHSRCC [NV1D3829]”, at human Nav1.7, the IC50 was 122 nM.
On to “GPCRTIGPSVCAPAPAPAPAPAPAPAPAPAPQCQKWMQTCDRERKCCEGFVCTLWCRKKLW [NV1D3832]”, for which, on human Nav1.7, the IC50 amounted to 88.4 nM.
Still for that read-out and setting: next, “GPCCNCSSKWCRDHSRCCGRGSAPAPAPAPAPGSQCQKWMQTCDAERKCCEGFVCRLWCKKKLW [NV1D3256]”: 55.7 nM.
Consider “GPQCQKWMQTCDRTRKCCEGFVCTLWCRKKLW-NH2 [NV1D3368-NH2]”, for which the “selectivity … to recombinant Protoxin-II” value at human Nav1.6 is given as “improved selectivity”. The “efficacy in the CFA model / reversal” value in experiment [3] is on record as “readily reversed”.
